A word on the inhibition: it is the change of the read-out against control, counted positive when it falls. The term IC50 denotes the point on the concentration scale where inhibition reaches its midpoint. Read a high IC50 as weaker potency.

Test [1] concerns PGE2 release from normal human chondrocytes. Briefly: IL-1β-induced PGE2 release from normal human chondrocytes, 24 h, DA vs decanoate working solutions. Conditions: for inhibition at 25 µM: Homo sapiens, Chondrocyte, 25 micromolar. The format is cell-based. The procedure:
The activity of DA working solutions prepared in either saline or lactated ringer's (LR) isotonic solutions was assessed. […] In addition, concentrated decanoate working solutions in saline or LR were prepared and added to the cultures at a final concentration of 25 micromolar. PGE2 release was then compared to matching points on the DA or decanoate medium as well as saline and LR controls.

Test [2] has as its system IL-1β release from human THP1 macrophages. Briefly: Two-hit (LPS then ATP) inflammasome activation model, IL-1β release from THP1 macrophages. It is filed as cell-based. The note with it: for IC50: Homo sapiens. The text has this: The proinflammatory cytokine, IL-1β, is released from cells upon activation of the inflammasome, a multi-protein proinflammatory complex. A two-hit model of inflammasome activation in THP1 macrophages was developed that entails an overnight stimulation with LPS followed by a second proinflammatory stimulus, extracellular ATP, which drives inflammasome assembly and subsequent IL-1β release from the cells into the media.

Test [3] has as its system PGE2 release from passage 3 normal human chondrocytes. Briefly: Rescue versus preincubation regimens, IL-1β-induced PGE2 release from passage 3 normal human chondrocytes. It is filed as cell-based. The note with it: Homo sapiens, Chondrocyte, 25 μM Dec, singlet. An excerpt:
The mechanisms of action (MOA) of a drug often dictate the timing and delivery of treatment regimens. While the MOA of compounds disclosed herein continue to be elucidated, experiments were designed to help establish how the drugs should be administered. Furthermore, these experiments will also help with hypothesis generation for subsequent MOA investigations. A low-passage chondrocyte monolayer model was utilized to establish how changes in drug delivery impact the inhibition of IL-1β-induced PGE2 release seen following treatment with the compounds under investigation.
Passage 3 normal human chondrocytes were seeded into tissue culture plates and then tested for compound activity by pre-treating for 24 hours, administering at the same time as activation, or by adding to cells following an overnight activation with IL-1β. Treatment groups included medium control, 25 μM decanoate (Dec), 28 mM D/L sodium Lac, and 10 μM LA. PGE2 release was then evaluated 24- or 96-hours post-activation with percent inhibitions calculated versus plate- and block-matched controls. The experiments were performed in singlet and are intended to be repeated to establish variance.

Test [4] deals with PGE2 release from normal human chondrocytes. Description: IL-1β-induced PGE2 release from normal human chondrocyte monolayers, 48 h, competitive EIA. The format is cell-based. The procedure:
Mechanical stress and inflammation are thought to sustain catabolic cycles of extracellular matrix deterioration during osteoarthritis. In particular, PGE2 correlates with increased protease production and discomfort or pain in osteoarthritis.
After 48-hours, PGE2 release was evaluated by competitive EIA, and relative potency was calculated versus dose responses of Dex alone.
After 48 hours, PGE2 release was evaluated by competitive enzyme immunoassay (EIA), and relative potency was calculated versus Dex alone.
Lac is commonly thought to be simply an end-product of anaerobic glycolysis; however, it may also have immunomodulatory effects and promote protein modifications that alter gene expression. The goal of this experiment was to determine how Lac supplementation affects early-phase, inflammatory, and late-stage redifferentiation in chondrocyte models. To establish how Lac may influence inflammation early in osteoarthritis, monolayers of normal human chondrocytes were exposed to Lac dose responses of up to 100 millimolar, concurrently with 0.5 nanograms per milliliter IL-1β for 48 hours. The release of PGE2 was then quantified using competitive EIA. To investigate how Lac affects transcriptional programs in dedifferentiated osteoarthritic chondrocytes, monolayer cultures and micromass pellets were treated for 14 days with 100 millimolar final concentrations of Lac, with and without 10 nanograms per milliliter transforming growth factor beta 3 (TGF-β3). Total RNA was then isolated, and relative expression of SOX9 or Col2a1 was calculated using qRT-PCR, normalized to GAPDH.

For test [5], the system named is MMP13 expression in primary human chondrocytes from an osteoarthritic patient. Description: MMP13 relative expression in primary human osteoarthritic chondrocytes treated with HA and/or Dex. The format is cell-based. Conditions: 0.1% HA, 0.1 μM Dex. The procedure: Without being bound by theory, it is hypothesized that HA treatment in combination with Dex could provide a therapeutic strategy that promotes HA's beneficial effects while maintaining Dex's anti-inflammatory response. To investigate this, primary human chondrocytes from an osteoarthritic patient were treated with 0.1% HA and/or 0.1 μM Dex in monolayer culture or micromass pellets for 14 to 28 days. Total mRNA was then extracted, and qRTPCR was performed with primer pairs specific for MMP13 and the housekeeping gene GAPDH. Relative expression was then calculated versus controls, with each sample normalized to GAPDH amplification.

The subject of test [6] is SOX9 expression in human osteoarthritic chondrocytes. Briefly: SOX9 relative expression in high and low passage osteoarthritic chondrocytes, 7, 14 or 28 days. It is filed as cell-based. The text has this:
Media was exchanged bi-weekly. […] SOX9 is a transcription factor vital to the development and maintenance of cartilage and is required for chondrogenesis. SOX9 promotes chondrocyte survival and transcriptionally activates cartilage-specific genes. SOX9 is repressed in hypertrophic chondrocytes (i.e. terminally differentiated osteoblast-like cells).

Test [7] concerns MMP13 expression in human osteoarthritic chondrocytes. Description: MMP13 relative expression in high and low passage osteoarthritic chondrocytes. Conditions: low passage osteoarthritic chondrocytes; 7, 14, 28 days. The format is cell-based.
Test [8] concerns Col2a1 expression in dedifferentiated osteoarthritic chondrocytes. Briefly: Col2a1 relative expression in high passage osteoarthritic chondrocyte monolayer model with TGF-β. Conditions: 14 days in culture with TGF-β; 28 mM Lac, 100 mm LA. It is filed as cell-based, human. The procedure:
(§1) These compounds were tested in a high passage osteoarthritic chondrocyte monolayer model, alone or in combination with other agents, for both transcriptional regulation of standard markers and IL-1β-induced PGE2 production.

For test [9], the system named is SOX9 expression in dedifferentiated osteoarthritic chondrocytes. Description: SOX9 relative expression in high passage osteoarthritic chondrocyte monolayer model with TGF-β. The format is cell-based, human. The note with it: 14 days in culture with TGF-β; 28 mM Lac, 100 mm LA. As for the experimental part:
as §1

The test system of test [10] is PGE2 release from dedifferentiated osteoarthritic chondrocytes. Description: IL-1β-induced PGE2 release in high passage osteoarthritic chondrocyte monolayer model, 24 h. It is filed as cell-based. Conditions: Homo sapiens. As for the experimental part:
as §1

Test [11] concerns PGE2 in primary human osteoarthritic synoviocytes. Briefly: Early, pretreatment and intracellular vs secreted PGE2 in IL-1β-stimulated human osteoarthritic synoviocytes. The format is cell-based. The note with it: 200 nanomolar DA or 500 nanograms/milliliter IL-1RA; IL-1β 1 nanogram/milliliter. The procedure: The concentrations in FIG. 31A were measured at hour three.
Cells were also treated with IL-IRA which inhibits IL-1β by binding the cell-surface […] and inhibiting its dimerization with the IL-1 receptor (IL-1R), effectively blocking IL-1β signaling.
FIG. 33 illustrates two bar graphs that depict the concentrations of PGE2 inside of the cell versus PGE2 that was secreted into the cell culture media. Specifically, the bar graph labeled “Intracellular” illustrates the concentrations of PGE2 inside of the cell and the bar graph labeled “Supernatent” illustrates the concentration of PGE2 that was secreted into the cell culture media. Synoviocytes were stimulated with IL-1β for 6 hours and then cell culture media harvested separately along with collecting cell lysates. […] To test this, the PGE2 concentrations inside of the cells and in the cell culture media were measured to compare them directly to each other.

Where [12] appears, read: 24 h, rescue (added after overnight IL-1β activation), 24-hour harvest, 28 mM Lac, 10 μM LA.
The mark [13] stands for this setting: 14-day micromass pellet culture.
[14] abbreviates: high passage, dedifferentiated osteoarthritic chondrocytes with TGF-β3, 14 days.

With `CCCCCCCCCC(=O)[O-].[Na+]` [Dec, sodium decanoate], in test [1] (95 percent confidence interval of 0.80-1.06), the “relative potency of decanoate as compared to DA” value was 0.92. The inhibition at 25 µM in test [1] (prepared in LR) is 65.2%; in test [1] (prepared in medium), 62.3%; in test [1] (prepared in saline), 63.2%; in test [3] (24 h, added at the same time as IL-1β, 24-hour harvest), 53%; in [3] (setting [12]), 72%; in [3] (96 h, added at the same time as IL-1β, 96-hour harvest), 76%. Also, the inhibition at 25 µM turned out to be 57% in [3] (96 h, rescue, 96-hour harvest, 28 mM Lac, 10 μM LA); 41% in test [3] (pre-incubation 24 hours before IL-1β, 24-hour harvest, 28 mM Lac, 10 μM LA); 75% in test [3] (pre-incubation, 96-hour harvest). Moreover, the “increase in potency of sodium decanoate by 25 nanomolar Dex” value in test [2] is 4.6 ×. Moreover, the IC50 came to 146 µM in test [2] (THP-1, repeated experiments comparing DA to sodium decanoate) and 31.5 µM in test [2] (THP-1, sodium decanoate with addition of 25 nanomolar Dex).

In test [4] (Homo sapiens, Chondrocyte, Dex 10 nanomolar final, IL-1β 500 pg/mL, 48 h), `C[C@@H]1C[C@H]2[C@@H]3CCC4=CC(=O)C=C[C@]4(C)[C@@]3(F)[C@@H](O)C[C@]2(C)[C@@]1(O)C(=O)CO` [Dex, dexamethasone, reference compound] came in with an inhibition at 0.01 µM of 100%. In addition, the “concentration at which statistical significance of PGE2 suppression was observed” value in [4] (IL-1β 48 h) is on record as 100 picomolar. Besides, the “increased Dex potency by 100 micromolar DA” value in test [2] turned out to be 1.969 ×. Moreover, the IC50 in [2] (THP-1, Dex phosphate alone, 1 picomolar to 10 micromolar) is 0.046 µM; in test [2] (THP-1, Dex with addition of 100 micromolar DA), 0.0234 µM. The results for the “Observed Relative expression of MMP13” value in test [5] (setting [13]) and in test [5] (28-day monolayer culture) were −38.6 fold and −3.6 fold, respectively.

On to `C[C@@H]1C[C@H]2[C@@H]3CCC4=CC(=O)C=C[C@]4(C)[C@@]3(F)[C@@H](O)C[C@]2(C)[C@@]1(O)C(=O)COP(=O)(O)O` [Dxp, dexamethasone phosphate, reference compound], for which the SOX9 expression entry in test [6] (setting [14]) is “decreased expression of SOX9”; in test [6] (low passage osteoarthritic chondrocytes, 7, 14, 28 days) it was “temporal decrease in expression of SOX9”. For the same molecule, in test [7], the MMP13 transcription entry is given as “reduce MMP13 transcription”.

As to `O=C(O)CCCCC1CCSS1` (stereo not drawn) [LA, α-lipoic acid], the SOX9 expression result in [6] (setting [14]) is listed as “increased SOX9 transcription”. Further, the “increase in Col2a1 compared to controls” value in [8] came out at 218 fold. Besides, the “increase in SOX9 transcription” value in test [9] is 4 fold. Further, in test [10] (LA 1 μM final), the inhibition at 1 µM amounted to 33%. The inhibition at 10 µM came out at 44% in test [10] (LA 10 μM final) and 85% in test [3] (setting [12]). Also, the inhibition at 100 µM in test [10] (LA 100 μM final) came to 93%.

As for “IL-1RA: IL-1 Receptor Antagonist, blocks IL-1β signaling”, the “PGE2 release after pretreatment (5 minutes, 1 hour, or 2 hours) then IL-1β 10 minutes or 1 hour” value in [11] is reported as “consistently higher than PGE2 levels in DA treated cells”.

On to hyaluronic acid [HA], for which the “Observed Relative expression of MMP13” value in test [5] (setting [13]) is −1.6 fold; in test [5] (28-day monolayer culture) it was 1.0 fold.

(Values after patent publication US20250288599A1, “PHARMACEUTICAL COMPOSITIONS AND METHODS FOR TREATING OSTEOARTHRITIS” (INSIGNIA PHARMACEUTICALS, LLC, priority 2024, published 2025).)
